Source: the NIST ThermoML archive (doi:10.1007/s10765-006-0119-1)

Settings: 101.33 kPa, Liquid, Oscillating Cup

O=[N+]([O-])[O-].[Na+] [sodium nitrate]
Settings	viscosity [mPa·s]
590.3 K	2.854
599.3 K	2.74
600 K	2.658
600.3 K	2.638
613.2 K	2.437
640.9 K	2.155
653.6 K	2.05
673.2 K	1.811
676.8 K	1.768
691.9 K	1.719
709.7 K	1.627
714.6 K	1.537
732.4 K	1.564
752.1 K	1.43
